Measured values: ChEMBL document CHEMBL1134848, “Synthesis and biological evaluation of a spongistatin AB-spiroketal analogue” (2002)

Legend:
Format in all cases: functional
[1] = system: DU-145; assay: In vitro growth inhibitory activity on human Prostate (DU-145) cell line
[2] = system: BXPC-3; assay: In vitro growth inhibitory activity on human Pancreas-a (BXPC-3) cell line
[3] = system: MCF7; assay: In vitro growth inhibitory activity on human Breast adn (MCF-7) cell line
[4] = system: KM-20L2; assay: In vitro growth inhibitory activity on human Colon (KM20L2) cell line
[5] = system: SF-268; assay: In vitro growth inhibitory activity on human CNS Gliobl (SF268) cell line
[6] = system: NCI-H460; assay: In vitro growth inhibitory activity on human Lung-NSC (NCI-H460) cell line

| GI50 [1] [µg/mL] | GI50 [2] [µg/mL] | GI50 [3] [µg/mL] | GI50 [6] [µg/mL] | Compound | GI50 [4] [µg/mL] | GI50 [5] [µg/mL] |
| --- | --- | --- | --- | --- | --- | --- |
| > 10 | > 10 | > 10 | > 10 | OCC1CCCC2(CCCC(CO)O2)O1 (single isomer, unassigned; (-)) | > 10 | > 10 |
| > 10 | > 10 | > 10 | > 10 | CC(=O)OC1CC(CCO)OC2(C1)CC(C)(O)CC(CO)O2 (single isomer, unassigned; (-)) | > 10 | > 10 |
